Tested on: HBV replication in HepDE19 cells
Experiment: Suppression of HBV replication in HepDE19 cells by synthetic gRNA/Cas9 RNPs, one-time transfection (ELISA, real-time PCR, RNAscope)
Type: cell-based, Hepatitis B virus (HBV)
Conditions: Tet-free medium 3 days; for HBV mRNA / HBV RNA level (RNAscope) / cccDNA level / pgRNA level / total HBV DNA level: HepDE19 cells, vs gRNAc; for cccDNA level: one-time transfection; for cccDNA level / pgRNA level / total HBV DNA level: real-time PCR; for HBeAg level / HBsAg level: HepDE19 supernatant, ELISA, vs scrambled gRNAc
Experimental: The HepDE19 cell line is tetracycline-controlled HBV stable cells maintained in the presence of 500 μg/ml G418 and 1 μg/ml tetracycline (Tet). Upon withdrawing Tet from the culture fluid of HepDE19 cells, pgRNA transcription, HBV DNA replication, cccDNA formation, and HBV e antigen (HBeAg) production gradually increase in a time-dependent manner. To induce HBV replication, the cells were cultured in a Tet-free medium for 0-10 days, followed by measuring the expression of HBV antigens, HBV cccDNA, and pgRNA using methods previously described. For cell transfection, HepDE19 cells were cultured in Tet-free medium for 2 days. The gRNA/Cas9 RNPs and Lipofectamine CRISPRMAX reagents were prepared in two separate tubes following the manufacturer's instructions. Briefly, 125 ng gRNA, 500 ng GeneArt Platinum Cas9 nuclease, and 1 μl Cas9 Plus reagents were mixed in one tube, and 1.5 μl Lipofectamine CRISPRMAX reagent was added in a separate tube. The gRNA/Cas9 RNP solution was then transferred to the tube containing the Lipofectamine CRISPRMAX solution. The mixture was vortexed and incubated at 25° C. for 10 min to form the gRNA/Cas9 RNP/Lipofectamine CRISPRMAX complex. Meanwhile, HepDE19 cells were seeded in a 24-well plate at 2.0×10^5 cells per well. The gRNA/Cas9 RNP/Lipofectamine CRISPRMAX complex was then added directly to the cell suspension, and the cells were incubated for 72 h, followed by assessing HBV replication with Tet-free medium as described above.
The levels of HBsAg and HBeAg in the supernatants of cell cultures were determined by ELISA (Cat #KA0286 and NBP2-600029, Novus Biologicals, Littleton, CO) according to the manufacturer's protocol. The optical density of antigen levels was measured at 450 nm using a microplate spectrophotometer. The samples were run in triplicate, and the experiments were repeated at least three times.
Total RNA was extracted from the cell pellets by the RNeasy Mini kit (Cat #74104, QIAGEN, Germantown, MD), and 1 μg RNA was converted to cDNA using the Applied Biosystems High-Capacity cDNA Reverse Transcription Kit (Cat #43-688-14, ThermoFisher, Waltham, MA). Quantitative real-time PCR (real-time-qPCR) was performed using iTaq Universal SYBR Green Supermix (Cat #1725124, Bio-Rad, Hercules, CA). The PCR primers were: HBV mRNA forward, 5′-[…]-3′ (SEQ ID NO: 52), reverse, 5′-[…]-3′ (SEQ ID NO: 53); HBV pgRNA forward 5′-[…]-3′ (SEQ ID NO: 54), reverse 5′-[…]-3′ (SEQ ID NO: 55); and GAPDH forward 5′-[…]-3′ (SEQ ID NO: 56), reverse 5′-[…]-3′ (SEQ ID NO: 57). The gene expression levels were determined by the […] method and values were normalized to GAPDH expression as an internal control.
Total and protein-free HBV DNAs were extracted from whole cell lysate using the Hirt DNA method according to a previously published protocol. For HBV cccDNA analysis, the protein-free DNA was treated with 10 units of T5 exonuclease (NEB) at 37° C. for 30 min, followed by 95° C. for 5 min, and diluted 4-fold with nuclease-free water. Next, the cccDNA was cleaned with a DNA clean and concentrator kit (ZYMO Research, Irvine, CA) and used for PCR. HBV total DNA and cccDNA were analyzed by real-time PCR using a TaqMan PCR assay. The primers and probe used to amplify HBV total DNA were: HBV total DNA forward: 5′-[…]-3′ (SEQ ID NO: 58), reverse 5′-[…]-3′ (SEQ ID NO: 59), and internal probe: 5′-FAM-[…]-TAMRA-3′ (SEQ ID NO: 60). The primers and probe used to amplify HBV cccDNA (Genotype D, subtype ayw) were: forward: 5′-[…]-3′ (SEQ ID NO: 61), reverse 5′-[…]-3′ (SEQ ID NO: 62), and internal probe 5′-FAM-[…]-TAMRA-3′ (SEQ ID NO: 63). The PCR reactions were performed in 20 μl volumes and contained 2 μl DNA. The PCR conditions were: 95° C. for 10 min, followed by 45 cycles of 95° C. for 15 s and 64° C. for 30 s. The DNA levels were determined by the […] method and values were normalized to the control group. […]

GGTCTCCATGCGACGTGCAGNGG [gRNA9]
significant decreases: HBV mRNA / HBV RNA level (RNAscope) | cccDNA level | pgRNA level | total HBV DNA level | HBeAg level | HBsAg level

GTTATCGCTGGATGTGTCTGNGG (guide GUUAUCGCUGGAUGUGUCUGNGG; complexed with Cas9 protein, chemistry not fully specified) [gRNA5, tested as synthetic gRNA/Cas9 RNP]
significant decreases: HBV mRNA / HBV RNA level (RNAscope) | cccDNA level | pgRNA level | total HBV DNA level | HBeAg level | HBsAg level
